{"source": "paper PMC11124822", "about": "“Discovery and Anticancer Screening of Novel Oxindole-Based Derivative Bearing Pyridyl Group as Potent and Selective Dual FLT3/CDK2 Kinase Inhibitor” (Pharmaceuticals, 2024)", "key": {"LOX IMVI": {"test_system": "LOX IMVI", "experiment": "NCI-60 antiproliferative screen (SRB)", "type": "cell-based, human", "conditions": "five-dose, 48 h, LOX IMVI"}, "SK-MEL-5": {"test_system": "SK-MEL-5", "experiment": "NCI-60 antiproliferative screen (SRB)", "type": "cell-based, human"}, "TK-10": {"test_system": "TK-10", "experiment": "NCI-60 antiproliferative screen (SRB)", "type": "cell-based, human", "conditions": "48 h"}, "786-0": {"test_system": "786-0", "experiment": "NCI-60 antiproliferative screen (SRB)", "type": "cell-based, human", "conditions": "48 h"}, "HOP-62": {"test_system": "HOP-62", "experiment": "NCI-60 antiproliferative screen (SRB)", "type": "cell-based, human", "conditions": "48 h"}, "MALME-3M": {"test_system": "MALME-3M", "experiment": "NCI-60 antiproliferative screen (SRB)", "type": "cell-based, human", "conditions": "five-dose, 48 h, MELME-3M"}, "[1]": {"test_system": "NCI-60 human cancer cell lines", "experiment": "NCI-60 screen, full panel summary", "type": "cell-based", "procedure": "In a comprehensive test, compounds were assayed at a single dose concentration (10^−5 M) in the full panel of NCI-60 cancer cell lines."}, "SW-620": {"test_system": "SW-620", "experiment": "NCI-60 antiproliferative screen (SRB)", "type": "cell-based, human", "conditions": "48 h"}, "IGROV1": {"test_system": "IGROV1", "experiment": "NCI-60 antiproliferative screen (SRB)", "type": "cell-based, human", "conditions": "five-dose, 48 h, IGROV1"}, "NCI-H23": {"test_system": "NCI-H23", "experiment": "NCI-60 antiproliferative screen (SRB)", "type": "cell-based, human", "conditions": "48 h"}, "SNB-75": {"test_system": "SNB-75", "experiment": "NCI-60 antiproliferative screen (SRB)", "conditions": "Homo sapiens, SNB-75, 48 h, read-out: Growth inhibition (%)"}, "HOP-92": {"test_system": "HOP-92", "experiment": "NCI-60 antiproliferative screen (SRB)", "type": "cell-based, human", "conditions": "48 h"}, "HCC-2998": {"test_system": "HCC-2998", "experiment": "NCI-60 antiproliferative screen (SRB)", "type": "cell-based, human", "conditions": "48 h"}, "HS 578T": {"test_system": "HS 578T", "experiment": "NCI-60 antiproliferative screen (SRB)", "type": "cell-based, human", "conditions": "48 h"}}, "note": "Like-named read-outs stand apart in the source and are kept apart here.", "data": [{"smiles": "O=C1Nc2cc(Cl)ccc2C1=Cc1ccc(OCc2cccnc2)cc1", "note": "(mixture of isomers) [Compound 5l, (E/Z)-6-Chloro-3-[4-(pyridin-3-ylmethoxy)benzylidene] indolin-2-one]", "values": [{"measurement": "TGI", "setting": "LOX IMVI", "value": 24.80, "unit": "µM"}, {"measurement": "CC50", "setting": "LOX IMVI; read-out: LC50 (the source's name)", "value": 96.6, "unit": "µM"}, {"measurement": "CC50", "setting": "SK-MEL-5; Homo sapiens, SK-MEL-5, 48 h, five-dose, SK-MEL-5, read-out: LC50 (the source's name)", "value": 65.6, "unit": "µM"}, {"measurement": "inhibition at 10 µM", "setting": "SK-MEL-5; Homo sapiens, 10 µM single dose, 48 h, SK-MEL-5 (Melanoma), read-out: Growth inhibition (%)", "value": 153, "unit": "%"}, {"measurement": "GI50", "setting": "SK-MEL-5; Homo sapiens, five-dose, 48 h, SK-MEL-5", "value": 3.46, "unit": "µM"}, {"measurement": "CC50", "setting": "SK-MEL-5; five-dose, 48 h, SK-MEL-5, read-out: LC50 (the source's name)", "value": 71.5, "unit": "µM"}, {"measurement": "inhibition at 10 µM", "setting": "TK-10; Homo sapiens, 10 µM single dose, TK-10 (Renal), read-out: Growth inhibition (%)", "value": 29.4, "unit": "%"}, {"measurement": "GI50", "setting": "TK-10; Homo sapiens, five-dose, TK-10", "value": 77.1, "unit": "µM"}, {"measurement": "CC50", "setting": "TK-10; Homo sapiens, five-dose, TK-10, read-out: LC50 (the source's name)", "value": "> 100", "unit": "µM"}, {"measurement": "TGI", "setting": "TK-10; five-dose, TK-10", "value": ">100", "unit": "µM"}, {"measurement": "inhibition at 10 µM", "setting": "786-0; Homo sapiens, 10 µM single dose, 786-0 (Renal), read-out: Growth inhibition (%)", "value": 47.2, "unit": "%"}, {"measurement": "GI50", "setting": "786-0; Homo sapiens, five-dose, 786-0", "value": 26.6, "unit": "µM"}, {"measurement": "CC50", "setting": "786-0; Homo sapiens, five-dose, 786-0, read-out: LC50 (the source's name)", "value": "> 100", "unit": "µM"}, {"measurement": "TGI", "setting": "786-0; five-dose, 786-0", "value": ">100", "unit": "µM"}, {"measurement": "inhibition at 10 µM", "setting": "HOP-62; Homo sapiens, 10 µM single dose, HOP-62 (NSCLC), read-out: Growth inhibition (%)", "value": 72.9, "unit": "%"}, {"measurement": "GI50", "setting": "HOP-62; Homo sapiens, five-dose, HOP-62", "value": 12.9, "unit": "µM"}, {"measurement": "CC50", "setting": "HOP-62; Homo sapiens, five-dose, HOP-62, read-out: LC50 (the source's name)", "value": "> 100", "unit": "µM"}, {"measurement": "TGI", "setting": "HOP-62; five-dose, HOP-62", "value": ">100", "unit": "µM"}, {"measurement": "GI50", "setting": "MALME-3M; Homo sapiens, Malme-3M", "value": 18.9, "unit": "µM"}, {"measurement": "TGI", "setting": "MALME-3M", "value": 75.70, "unit": "µM"}, {"measurement": "Positive Cytostatic Effect (cell lines with percent growth from 0 to 50 / total number of cell lines)", "setting": "[1]; 10 µM single dose", "value": "44/56"}, {"measurement": "Positive Cytotoxic Effect (cell lines with percent growth of <0 / total number of cell lines)", "setting": "[1]; 10 µM single dose", "value": "4/56"}, {"measurement": "Sensitive/Total Cell Lines", "setting": "[1]; 10 µM single dose", "value": "48/56"}, {"measurement": "The Most Sensitive Cell Line", "setting": "[1]; 10 µM single dose", "value": "SK-MEL-5"}, {"measurement": "number of cell lines with cytostatic effects", "setting": "[1]; 10 µM single dose", "value": 44}, {"measurement": "number of cell lines with cytotoxic effects", "setting": "[1]; 10 µM single dose", "value": 4}, {"measurement": "Mean Growth Percent", "setting": "[1]; 10 µM single dose, all NCI-60 cell lines", "value": 72.81}, {"measurement": "inhibition at 10 µM", "setting": "[1]; Homo sapiens, 10 µM single dose, read-out: Range of Growth Inhibition on All Cells", "value": "8.89 to 153", "unit": "%"}, {"measurement": "GI50", "setting": "[1]; Homo sapiens, five-dose, almost all cell lines, read-out: GI50 values, range over evaluated human cancer types", "value": "2.7 to 77.1", "unit": "µM"}, {"measurement": "CC50", "setting": "[1]; Homo sapiens, five-dose, excluding LOX IMVI, SK-MEL-5, SK-MEL-28, read-out: LC50 for most of the examined cancer cells", "value": "> 100", "unit": "µM"}, {"measurement": "GI50", "setting": "[1]; Homo sapiens, five-dose, full panel, read-out: Full panel MG-MID (GI50)", "value": 12.2, "unit": "µM"}, {"measurement": "TGI against the left-over cancer cells", "setting": "[1]; five-dose", "value": "> 100", "unit": "µM"}, {"measurement": "inhibition at 10 µM", "setting": "SW-620; Homo sapiens, 10 µM single dose, SW-620 (Colon), read-out: Growth inhibition (%)", "value": 92.7, "unit": "%"}, {"measurement": "GI50", "setting": "SW-620; Homo sapiens, five-dose, SW-620", "value": 2.76, "unit": "µM"}, {"measurement": "TGI", "setting": "SW-620; five-dose, SW-620", "value": ">100", "unit": "µM"}, {"measurement": "GI50", "setting": "IGROV1; Homo sapiens, IGROV-1", "value": 10.7, "unit": "µM"}, {"measurement": "CC50", "setting": "IGROV1; Homo sapiens, IGROV-1, read-out: LC50 (the source's name)", "value": "> 100", "unit": "µM"}, {"measurement": "TGI", "setting": "IGROV1", "value": 3.32, "unit": "µM"}, {"measurement": "inhibition at 10 µM", "setting": "NCI-H23; Homo sapiens, 10 µM single dose, NCI-H23 (NSCLC), read-out: Growth inhibition (%)", "value": 75.6, "unit": "%"}, {"measurement": "GI50", "setting": "NCI-H23; Homo sapiens, five-dose, NCI-H23", "value": 5.93, "unit": "µM"}, {"measurement": "TGI", "setting": "NCI-H23; five-dose, NCI-H23", "value": ">100", "unit": "µM"}, {"measurement": "inhibition at 10 µM", "setting": "SNB-75", "value": 18.3, "unit": "%"}, {"measurement": "inhibition at 10 µM", "setting": "HOP-92; Homo sapiens, 10 µM single dose, HOP-92 (NSCLC), read-out: Growth inhibition (%)", "value": 56.1, "unit": "%"}, {"measurement": "GI50", "setting": "HOP-92; Homo sapiens, five-dose, HOP-92", "value": 6.51, "unit": "µM"}, {"measurement": "TGI", "setting": "HOP-92; five-dose, HOP-92", "value": 62.70, "unit": "µM"}, {"measurement": "inhibition at 10 µM", "setting": "HCC-2998; Homo sapiens, 10 µM single dose, HCC-2998 (Colon), read-out: Growth inhibition (%)", "value": 50.9, "unit": "%"}, {"measurement": "GI50", "setting": "HCC-2998; Homo sapiens, five-dose, HCC-2998", "value": 13.7, "unit": "µM"}, {"measurement": "CC50", "setting": "HCC-2998; Homo sapiens, five-dose, HCC-2998, read-out: LC50 (the source's name)", "value": "> 100", "unit": "µM"}, {"measurement": "TGI", "setting": "HCC-2998; five-dose, HCC-2998", "value": ">100", "unit": "µM"}, {"measurement": "inhibition at 10 µM", "setting": "HS 578T; Homo sapiens, 10 µM single dose, HS 578T (Breast), read-out: Growth inhibition (%)", "value": 62.7, "unit": "%"}, {"measurement": "GI50", "setting": "HS 578T; Homo sapiens, five-dose, HS 578T", "value": 12.8, "unit": "µM"}, {"measurement": "CC50", "setting": "HS 578T; Homo sapiens, five-dose, HS 578T, read-out: LC50 (the source's name)", "value": "> 100", "unit": "µM"}, {"measurement": "TGI", "setting": "HS 578T; five-dose, HS 578T", "value": 98.10, "unit": "µM"}]}]}
